Drawing on ChEMBL document CHEMBL1781890, “Inhibition of Myosin ATPase activity by halogenated pseudilins: a structure-activity study” (J Med Chem, 2011), this text covers IC50 for eight molecules.

Where only a bound is given, the exact number is not on record here.

The nature of test [1]: Inhibition of Dictyostelium discoideum myosin 2 motor domain-activated ATPase activity by spectrophotometry based PK/LDH coupled ATPase assay.
In test [2] the target is Unconventional myosin-Va (Gallus gallus, UniProt Q02440). As to the kind of experiment: Inhibition of chicken myosin 5a assessed as ATP hydrolysis.
A short description of test [3]: Inhibition of Dictyostelium discoideum myosin 1b ATPase activity by spectrophotometric analysis.

Unconventional myosin-Va, sequence (Q02440 whole entry): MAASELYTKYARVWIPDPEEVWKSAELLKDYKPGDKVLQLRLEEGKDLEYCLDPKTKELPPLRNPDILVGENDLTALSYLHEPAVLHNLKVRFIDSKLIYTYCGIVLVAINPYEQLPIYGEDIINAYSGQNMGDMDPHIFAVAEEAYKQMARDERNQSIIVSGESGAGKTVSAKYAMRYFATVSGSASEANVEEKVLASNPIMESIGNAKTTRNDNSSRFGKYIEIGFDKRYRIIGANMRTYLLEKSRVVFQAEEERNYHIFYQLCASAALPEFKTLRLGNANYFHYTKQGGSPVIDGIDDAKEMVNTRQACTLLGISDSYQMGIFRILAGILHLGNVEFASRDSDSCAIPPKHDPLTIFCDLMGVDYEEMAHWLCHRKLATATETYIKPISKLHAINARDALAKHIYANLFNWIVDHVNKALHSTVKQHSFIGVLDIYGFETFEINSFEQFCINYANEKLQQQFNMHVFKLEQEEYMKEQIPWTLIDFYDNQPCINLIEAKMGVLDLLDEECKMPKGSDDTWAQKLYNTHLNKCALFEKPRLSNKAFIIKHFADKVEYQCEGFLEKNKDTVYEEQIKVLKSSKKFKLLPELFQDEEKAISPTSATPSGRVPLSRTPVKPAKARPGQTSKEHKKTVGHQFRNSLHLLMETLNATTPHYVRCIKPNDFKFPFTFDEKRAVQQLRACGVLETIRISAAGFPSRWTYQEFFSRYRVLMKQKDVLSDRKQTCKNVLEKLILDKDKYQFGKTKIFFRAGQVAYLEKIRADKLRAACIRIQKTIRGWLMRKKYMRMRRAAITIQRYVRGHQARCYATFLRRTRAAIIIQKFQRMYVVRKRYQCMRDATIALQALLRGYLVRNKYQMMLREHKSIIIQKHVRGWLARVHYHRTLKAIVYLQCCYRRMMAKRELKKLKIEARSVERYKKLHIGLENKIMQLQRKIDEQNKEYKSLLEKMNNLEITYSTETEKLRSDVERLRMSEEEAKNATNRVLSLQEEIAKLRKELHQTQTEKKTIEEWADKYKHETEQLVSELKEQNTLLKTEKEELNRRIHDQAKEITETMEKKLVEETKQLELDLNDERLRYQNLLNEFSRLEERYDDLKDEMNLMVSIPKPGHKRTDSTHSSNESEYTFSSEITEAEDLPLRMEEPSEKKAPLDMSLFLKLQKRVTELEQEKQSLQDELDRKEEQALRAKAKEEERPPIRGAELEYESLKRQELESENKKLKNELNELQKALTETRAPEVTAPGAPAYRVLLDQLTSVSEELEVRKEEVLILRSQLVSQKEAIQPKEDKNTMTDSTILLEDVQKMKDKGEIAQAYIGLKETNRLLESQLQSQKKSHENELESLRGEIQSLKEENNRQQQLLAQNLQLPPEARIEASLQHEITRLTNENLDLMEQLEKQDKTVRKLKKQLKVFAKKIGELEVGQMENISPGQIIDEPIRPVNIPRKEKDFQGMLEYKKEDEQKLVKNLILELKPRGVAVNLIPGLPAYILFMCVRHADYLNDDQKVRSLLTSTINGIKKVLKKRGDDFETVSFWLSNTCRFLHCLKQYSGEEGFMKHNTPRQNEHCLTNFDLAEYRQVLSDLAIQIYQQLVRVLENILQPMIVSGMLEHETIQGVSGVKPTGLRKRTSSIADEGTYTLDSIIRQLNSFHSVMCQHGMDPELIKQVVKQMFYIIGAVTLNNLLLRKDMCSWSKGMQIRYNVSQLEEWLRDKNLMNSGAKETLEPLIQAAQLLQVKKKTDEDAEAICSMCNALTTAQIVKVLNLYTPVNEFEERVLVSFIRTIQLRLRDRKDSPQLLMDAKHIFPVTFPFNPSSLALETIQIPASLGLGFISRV

With `COc1ccccc1-c1ccc[nH]1`, the IC50 (commonly the concentration needed to halve the response being measured) in test [1] was more than 1000 µM. With `Oc1ccccc1-c1ccc[nH]1`, in test [1], the IC50 was more than 1000 µM. Still for that read-out and setting: next, `COc1ccccc1-c1[nH]c(Br)c(Br)c1Br`: 182 µM. Consider `Oc1c(Br)cc(Br)cc1-c1[nH]c(Br)c(Br)c1Br` [PENTABROMOPSEUDILIN], for which the IC50 in test [1] amounted to 24.4 µM; in test [2] it was 1.2 µM. `COc1c(Cl)cc(Cl)cc1-c1[nH]c(Cl)c(Cl)c1Cl` registered an IC50 in test [1] of 274 µM. For the molecule `Oc1c(Cl)cc(Cl)cc1-c1[nH]c(Cl)c(Cl)c1Cl` [PENTACHLOROPSEUDILIN], the values for the IC50 in test [1] and in test [3] were 126 µM and 1 µM, respectively.

For `Cn1c(Br)c(Br)c(Br)c1-c1cc(Br)cc(Br)c1O`, 125 µM corresponded to half-maximal inhibition in test [1] (IC50). The same measure, in the same setting: the value for `COc1c(Br)cc(Br)cc1-c1[nH]c(Br)c(Br)c1Br` was 91.9 µM.
